ChEMBL document CHEMBL5291721, “A preclinical secondary pharmacology resource illuminates target-adverse drug reaction associations of marketed drugs” (Nat Commun, 2023)

Columns and labels:
Progesterone receptor = biological target: T1, Progesterone receptor (Homo sapiens, UniProt P06401); assay type: functional
T1 sequence (P06401 whole entry): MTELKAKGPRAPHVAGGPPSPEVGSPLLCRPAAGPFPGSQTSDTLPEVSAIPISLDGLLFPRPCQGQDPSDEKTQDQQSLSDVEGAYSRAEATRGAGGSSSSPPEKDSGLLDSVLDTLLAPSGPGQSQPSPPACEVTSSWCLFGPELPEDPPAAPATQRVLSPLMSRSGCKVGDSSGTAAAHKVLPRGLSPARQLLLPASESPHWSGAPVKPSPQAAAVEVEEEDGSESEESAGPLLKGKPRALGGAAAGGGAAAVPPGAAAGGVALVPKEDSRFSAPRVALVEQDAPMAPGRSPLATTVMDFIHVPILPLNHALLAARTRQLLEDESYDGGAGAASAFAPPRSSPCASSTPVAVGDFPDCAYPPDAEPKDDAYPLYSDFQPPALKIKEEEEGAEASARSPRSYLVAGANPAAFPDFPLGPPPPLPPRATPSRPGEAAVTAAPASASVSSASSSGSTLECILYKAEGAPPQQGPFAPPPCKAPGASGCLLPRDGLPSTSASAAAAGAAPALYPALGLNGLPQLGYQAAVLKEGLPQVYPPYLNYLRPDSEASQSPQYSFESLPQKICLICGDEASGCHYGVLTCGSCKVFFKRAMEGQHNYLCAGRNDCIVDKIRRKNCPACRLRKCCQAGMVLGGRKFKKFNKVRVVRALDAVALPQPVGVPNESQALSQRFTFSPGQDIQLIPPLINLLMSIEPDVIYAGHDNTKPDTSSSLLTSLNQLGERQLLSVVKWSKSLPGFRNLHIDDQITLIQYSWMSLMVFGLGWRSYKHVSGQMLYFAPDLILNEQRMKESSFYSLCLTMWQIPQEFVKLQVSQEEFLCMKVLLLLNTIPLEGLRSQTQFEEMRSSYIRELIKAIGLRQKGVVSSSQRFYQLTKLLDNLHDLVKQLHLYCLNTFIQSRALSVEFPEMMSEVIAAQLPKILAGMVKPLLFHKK

[1] = biological target: Sodium-dependent noradrenaline transporter (Homo sapiens, UniProt P23975)
[2] = biological target: T2, 5-hydroxytryptamine receptor 3A (Homo sapiens, UniProt P46098); assay type: functional
T2 sequence (P46098 whole entry): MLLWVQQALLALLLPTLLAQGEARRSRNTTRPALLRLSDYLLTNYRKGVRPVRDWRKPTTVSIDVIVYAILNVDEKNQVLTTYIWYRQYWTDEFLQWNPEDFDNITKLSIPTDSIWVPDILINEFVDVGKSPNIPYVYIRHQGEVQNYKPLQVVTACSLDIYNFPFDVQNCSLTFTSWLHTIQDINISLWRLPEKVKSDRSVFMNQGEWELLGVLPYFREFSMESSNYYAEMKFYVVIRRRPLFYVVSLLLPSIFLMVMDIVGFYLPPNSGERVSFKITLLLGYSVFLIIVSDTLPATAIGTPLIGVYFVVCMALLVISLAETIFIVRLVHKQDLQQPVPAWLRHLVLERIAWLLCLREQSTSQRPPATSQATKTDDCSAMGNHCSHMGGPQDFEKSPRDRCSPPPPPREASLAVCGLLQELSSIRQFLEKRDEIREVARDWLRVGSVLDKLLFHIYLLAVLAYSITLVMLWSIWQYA

D(1A) dopamine receptor = D(1A) dopamine receptor (Homo sapiens, UniProt P21728); assay type: functional, cell-based
[3] = biological target: T3, Neuropeptide Y receptor type 1 (Homo sapiens, UniProt P25929)
T3 sequence (P25929 whole entry): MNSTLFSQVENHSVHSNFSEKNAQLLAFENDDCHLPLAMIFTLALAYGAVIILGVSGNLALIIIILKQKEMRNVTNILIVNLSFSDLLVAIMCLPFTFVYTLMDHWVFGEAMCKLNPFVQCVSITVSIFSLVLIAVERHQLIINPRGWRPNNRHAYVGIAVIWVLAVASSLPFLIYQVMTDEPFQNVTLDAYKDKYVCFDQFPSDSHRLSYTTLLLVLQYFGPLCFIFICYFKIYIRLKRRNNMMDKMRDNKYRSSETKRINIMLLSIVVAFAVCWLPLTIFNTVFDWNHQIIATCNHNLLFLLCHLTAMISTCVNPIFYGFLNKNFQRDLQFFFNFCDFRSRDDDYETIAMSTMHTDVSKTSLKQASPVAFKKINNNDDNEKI

[4] = biological target: T4, Prostaglandin G/H synthase 1 (Rattus norvegicus, UniProt Q63921); assay type: functional
T4 sequence (Q63921 whole entry): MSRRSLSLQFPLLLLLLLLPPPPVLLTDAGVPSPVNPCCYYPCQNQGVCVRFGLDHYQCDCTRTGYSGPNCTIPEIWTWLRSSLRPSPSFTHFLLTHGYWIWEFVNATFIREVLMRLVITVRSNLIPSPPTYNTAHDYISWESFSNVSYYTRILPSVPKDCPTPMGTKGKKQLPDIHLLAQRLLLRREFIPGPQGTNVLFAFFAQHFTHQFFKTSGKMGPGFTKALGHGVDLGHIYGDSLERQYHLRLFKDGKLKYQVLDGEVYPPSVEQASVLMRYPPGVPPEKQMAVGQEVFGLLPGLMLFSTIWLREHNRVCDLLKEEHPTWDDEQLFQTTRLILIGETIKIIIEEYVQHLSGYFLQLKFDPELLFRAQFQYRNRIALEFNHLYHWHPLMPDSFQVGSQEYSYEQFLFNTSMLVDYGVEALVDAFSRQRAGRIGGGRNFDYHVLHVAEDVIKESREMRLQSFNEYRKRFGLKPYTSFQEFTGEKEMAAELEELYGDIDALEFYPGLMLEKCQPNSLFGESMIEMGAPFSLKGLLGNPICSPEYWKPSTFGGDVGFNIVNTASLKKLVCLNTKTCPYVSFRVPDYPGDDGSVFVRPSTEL

[5] = biological target: 3',5'-cyclic-AMP phosphodiesterase 4D (Homo sapiens, UniProt Q08499); assay type: functional
[6] = biological target: 5-hydroxytryptamine receptor 2B (Homo sapiens, UniProt P41595); assay type: functional, cell-based
Histamine H1 receptor = Histamine H1 receptor (Homo sapiens, UniProt P35367)
Note: assay procedure not described here.

Sodium-dependent noradrenaline transporter, sequence (P23975 whole entry): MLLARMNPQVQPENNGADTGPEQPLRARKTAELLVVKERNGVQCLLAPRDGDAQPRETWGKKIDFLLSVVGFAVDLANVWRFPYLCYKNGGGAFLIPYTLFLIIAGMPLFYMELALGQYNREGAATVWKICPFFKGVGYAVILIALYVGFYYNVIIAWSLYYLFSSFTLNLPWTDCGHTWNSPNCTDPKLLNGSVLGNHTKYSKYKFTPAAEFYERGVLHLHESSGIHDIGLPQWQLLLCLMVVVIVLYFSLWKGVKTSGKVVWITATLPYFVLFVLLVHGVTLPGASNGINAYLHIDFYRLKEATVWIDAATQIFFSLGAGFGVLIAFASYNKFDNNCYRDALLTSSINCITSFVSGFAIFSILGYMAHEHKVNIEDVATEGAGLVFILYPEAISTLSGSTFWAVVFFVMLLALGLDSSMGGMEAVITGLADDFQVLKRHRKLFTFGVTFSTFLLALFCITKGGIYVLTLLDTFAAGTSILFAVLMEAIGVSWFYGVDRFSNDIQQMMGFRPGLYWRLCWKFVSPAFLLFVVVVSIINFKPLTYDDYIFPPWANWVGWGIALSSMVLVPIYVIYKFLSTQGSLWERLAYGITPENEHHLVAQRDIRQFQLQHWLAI
Histamine H1 receptor, sequence (P35367 whole entry): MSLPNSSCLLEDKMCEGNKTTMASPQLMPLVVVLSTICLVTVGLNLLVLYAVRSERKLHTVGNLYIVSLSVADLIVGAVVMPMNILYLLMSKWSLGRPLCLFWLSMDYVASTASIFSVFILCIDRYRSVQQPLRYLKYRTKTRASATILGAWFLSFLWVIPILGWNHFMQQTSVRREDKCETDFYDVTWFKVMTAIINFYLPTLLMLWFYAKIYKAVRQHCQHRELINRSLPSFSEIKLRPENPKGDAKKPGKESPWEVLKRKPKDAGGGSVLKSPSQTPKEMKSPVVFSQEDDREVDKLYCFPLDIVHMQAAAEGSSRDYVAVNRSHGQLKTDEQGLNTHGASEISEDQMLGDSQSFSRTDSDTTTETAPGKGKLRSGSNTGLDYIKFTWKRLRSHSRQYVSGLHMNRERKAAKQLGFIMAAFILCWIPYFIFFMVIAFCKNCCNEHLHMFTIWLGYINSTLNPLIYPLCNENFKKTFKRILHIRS
D(1A) dopamine receptor, sequence (P21728 whole entry): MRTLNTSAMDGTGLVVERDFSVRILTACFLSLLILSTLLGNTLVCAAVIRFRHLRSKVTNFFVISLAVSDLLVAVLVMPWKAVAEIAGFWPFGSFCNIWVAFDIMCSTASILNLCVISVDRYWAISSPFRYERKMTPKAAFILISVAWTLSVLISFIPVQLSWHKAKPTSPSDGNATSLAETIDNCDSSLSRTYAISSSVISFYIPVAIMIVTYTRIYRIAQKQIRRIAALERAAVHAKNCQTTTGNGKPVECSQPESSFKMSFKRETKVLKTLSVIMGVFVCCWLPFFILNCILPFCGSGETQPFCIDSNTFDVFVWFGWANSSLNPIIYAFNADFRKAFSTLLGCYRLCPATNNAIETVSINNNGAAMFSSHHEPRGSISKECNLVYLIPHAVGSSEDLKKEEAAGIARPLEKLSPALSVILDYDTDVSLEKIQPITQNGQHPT
3',5'-cyclic-AMP phosphodiesterase 4D, sequence (Q08499 whole entry): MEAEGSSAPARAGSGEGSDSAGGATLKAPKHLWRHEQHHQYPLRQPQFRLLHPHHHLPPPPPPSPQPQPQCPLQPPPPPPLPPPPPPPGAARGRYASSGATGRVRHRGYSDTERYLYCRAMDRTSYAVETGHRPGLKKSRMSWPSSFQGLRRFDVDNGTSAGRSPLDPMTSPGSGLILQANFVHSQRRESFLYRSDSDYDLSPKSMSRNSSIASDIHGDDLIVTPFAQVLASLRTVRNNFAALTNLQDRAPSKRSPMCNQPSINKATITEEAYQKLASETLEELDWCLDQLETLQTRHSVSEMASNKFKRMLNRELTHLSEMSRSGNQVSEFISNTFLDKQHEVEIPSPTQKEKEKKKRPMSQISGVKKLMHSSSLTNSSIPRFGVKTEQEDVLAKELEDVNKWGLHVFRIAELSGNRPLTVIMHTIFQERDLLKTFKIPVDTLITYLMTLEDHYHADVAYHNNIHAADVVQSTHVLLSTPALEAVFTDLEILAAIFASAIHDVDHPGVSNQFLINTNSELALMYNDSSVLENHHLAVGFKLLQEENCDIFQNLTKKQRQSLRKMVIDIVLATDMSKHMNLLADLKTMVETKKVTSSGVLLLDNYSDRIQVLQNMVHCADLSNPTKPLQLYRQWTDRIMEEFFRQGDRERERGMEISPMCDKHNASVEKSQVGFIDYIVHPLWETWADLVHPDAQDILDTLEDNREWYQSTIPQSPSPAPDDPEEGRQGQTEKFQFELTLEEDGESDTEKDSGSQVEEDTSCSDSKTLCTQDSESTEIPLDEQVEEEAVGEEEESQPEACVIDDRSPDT
5-hydroxytryptamine receptor 2B, sequence (P41595 whole entry): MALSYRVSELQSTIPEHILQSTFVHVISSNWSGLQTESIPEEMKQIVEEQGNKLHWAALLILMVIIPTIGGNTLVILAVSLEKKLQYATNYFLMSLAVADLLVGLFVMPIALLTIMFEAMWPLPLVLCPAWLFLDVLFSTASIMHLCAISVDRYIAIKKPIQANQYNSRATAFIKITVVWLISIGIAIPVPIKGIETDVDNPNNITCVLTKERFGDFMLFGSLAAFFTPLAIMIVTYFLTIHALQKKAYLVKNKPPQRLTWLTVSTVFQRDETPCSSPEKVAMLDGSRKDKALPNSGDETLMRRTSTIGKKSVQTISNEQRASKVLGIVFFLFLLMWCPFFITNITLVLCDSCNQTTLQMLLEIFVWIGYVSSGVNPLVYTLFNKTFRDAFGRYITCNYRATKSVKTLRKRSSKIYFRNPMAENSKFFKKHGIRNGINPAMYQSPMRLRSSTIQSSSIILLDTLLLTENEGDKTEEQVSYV

Structure (SMILES) | AC50 (Progesterone receptor) | AC50 [1] | AC50 [2] | AC50 (D(1A) dopamine receptor) | AC50 [3] | AC50 [4] | AC50 [5] | AC50 [6] | AC50 (Histamine H1 receptor)
COc1ccc(-c2ccc3cc(C(=O)O)ccc3c2)cc1C12CC3CC(CC(C3)C1)C2 | > 30 µM | > 30 µM | > 30 µM | > 30 µM | > 30 µM | > 30 µM | > 30 µM | > 30 µM | > 30 µM
COc1ccccc1N1CCN(CCCNc2cc(=O)n(C)c(=O)n2C)CC1 | > 30 µM | > 30 µM | > 30 µM | > 30 µM | > 30 µM | > 30 µM | > 10 µM | 20 µM | 4.3 µM
CCOC(=O)[C@H](CCc1ccccc1)N[C@@H](C)C(=O)N1C(=O)N(C)C[C@H]1C(=O)O | > 30 µM | > 30 µM | > 30 µM | > 30 µM | > 30 µM | 12 µM | > 30 µM | > 30 µM | > 30 µM
CC(C)(C)C(=O)Oc1ccc(S(=O)(=O)Nc2ccccc2C(=O)NCC(=O)O)cc1 | > 30 µM | > 30 µM | > 30 µM | > 30 µM | > 30 µM | > 30 µM | > 30 µM | > 30 µM | > 30 µM
CC(=O)O[C@H]1CC[C@@]2(C)C(=CC[C@@H]3[C@@H]2CC[C@]2(C)C(c4cccnc4)=CC[C@@H]32)C1 [ABIRATERONE ACETATE] | > 30 µM | > 30 µM | > 30 µM | > 30 µM |  | > 30 µM | > 30 µM | > 30 µM | > 30 µM
O=C(O)CCCCCCNC1c2ccccc2CCc2ccccc21 [AMINEPTINE] | > 30 µM | > 30 µM | > 30 µM | > 30 µM | > 30 µM | > 30 µM | > 30 µM | > 30 µM | > 30 µM
NCC(=O)CCC(=O)O [AMINOLEVULINIC ACID] | > 30 µM |  | > 30 µM | > 30 µM | > 30 µM | > 30 µM | > 30 µM |  | > 30 µM
COc1ccccc1OCCNCC(O)c1ccc(C)c(S(N)(=O)=O)c1 (stereo not drawn) [AMOSULALOL] | > 30 µM | > 30 µM | > 30 µM | > 30 µM | > 30 µM | > 30 µM | 6.7 µM | 1.6 µM | 16 µM
O=C(O)CCCCCCCC(=O)O [AZELAIC ACID] | > 10 µM | > 10 µM | > 30 µM | > 30 µM | > 10 µM | > 10 µM | > 30 µM | > 10 µM | > 10 µM
CC(C[N+](C)(C)C)OC(N)=O (stereo not drawn) [BETHANECHOL] | > 10 µM | > 10 µM | > 30 µM | > 10 µM | > 10 µM | > 10 µM | > 30 µM | > 10 µM | > 10 µM
C=CCC1(CC(C)C)C(=O)NC(=O)NC1=O [BUTALBITAL] | > 10 µM | > 10 µM | > 30 µM | > 30 µM | > 10 µM | > 10 µM | > 30 µM | > 10 µM | > 30 µM
CO/N=C(\C(=O)N[C@@H]1C(=O)N2C(C(=O)O)=C(CSc3nnnn3C)CS[C@H]12)c1csc(N)n1 [CEFMENOXIME] | > 30 µM | > 30 µM |  | > 30 µM | > 30 µM | > 30 µM | > 30 µM | > 30 µM | > 30 µM
CCCCc1ncc(/C=C(\Cc2cccs2)C(=O)O)n1Cc1ccc(C(=O)O)cc1 [EPROSARTAN] |  | > 30 µM | > 10 µM | > 30 µM | > 10 µM | > 30 µM | > 10 µM | > 10 µM | > 10 µM
CCc1c(Cl)c(O)c(Cl)c(O)c1C(=O)O[C@H]1[C@H](O)[C@H](OC)[C@H](OC/C2=C\C=C\C[C@H](O)/C(C)=C/[C@H](CC)[C@@H](O[C@@H]3OC(C)(C)[C@@H](OC(=O)C(C)C)[C@H](O)[C@@H]3O)/C(C)=C/C(C)=C/C[C@@H]([C@@H](C)O)OC2=O)O[C@@H]1C [FIDAXOMICIN] | > 30 µM | > 30 µM | > 10 µM |  | > 30 µM | > 30 µM | > 30 µM | > 30 µM | > 30 µM
CCCc1nc(C(C)(C)O)c(C(=O)OCc2oc(=O)oc2C)n1Cc1ccc(-c2ccccc2-c2nnn[nH]2)cc1 [OLMESARTAN MEDOXOMIL] |  | > 30 µM | > 10 µM | > 10 µM | > 10 µM | > 30 µM | 3.9 µM | > 10 µM | > 10 µM
O=C(O)/C=C/c1ccc(Cn2ccnc2)cc1 [OZAGREL] | > 30 µM |  | > 30 µM | > 30 µM | > 30 µM | > 30 µM | > 30 µM | > 30 µM | > 30 µM
CC[C@@H]1C(=O)OC[C@@H]1Cc1cncn1C [PILOCARPINE] |  | > 30 µM | > 30 µM | > 10 µM | > 30 µM | > 30 µM | > 30 µM | > 10 µM | > 10 µM
CN1CCC(=C2c3ccccc3CCc3sccc32)CC1 [PIZOTYLINE] |  | 1.1 µM | 1.4 µM | > 30 µM | > 30 µM | > 30 µM | > 10 µM | 0.0279 µM | 0.0047 µM
CN1C(=O)C(O)N=C(c2ccccc2)c2cc(Cl)ccc21 (stereo not drawn) [TEMAZEPAM] |  | > 10 µM | > 30 µM | > 10 µM | > 30 µM | > 30 µM | > 30 µM | > 10 µM | > 10 µM
C/C(O)=C(\C#N)C(=O)Nc1ccc(C(F)(F)F)cc1 [TERIFLUNOMIDE] | > 30 µM | > 30 µM | > 30 µM | > 30 µM |  | > 30 µM | > 30 µM | > 30 µM | > 30 µM
